≈ marks a conversion by molar mass, not a printed value.
Assays:
[1] = Inhibition of gamma-secretase-mediated amyloid beta 40/42 accumulation assessed as beta-CTF cleavage by cell-based sandwich ELISA
[2] = Inhibition of gamma-secretase by Notch-1 cleavage assay
Cytochrome P450 3A4 = Cytochrome P450 3A4 (Homo sapiens, UniProt P08684); assay: Inhibition of CYP3A4 at 50 uM; assay type: ADME
[3] = Solubility of compound at pH 7.4; assay type: physicochemical; conditions: buffer
Cytochrome P450 2C9 = Cytochrome P450 2C9 (Homo sapiens, UniProt P11712); assay: Inhibition of CYP2C9 at 50 uM; assay type: ADME
Chain of Cytochrome P450 2C9 (P11712 whole entry): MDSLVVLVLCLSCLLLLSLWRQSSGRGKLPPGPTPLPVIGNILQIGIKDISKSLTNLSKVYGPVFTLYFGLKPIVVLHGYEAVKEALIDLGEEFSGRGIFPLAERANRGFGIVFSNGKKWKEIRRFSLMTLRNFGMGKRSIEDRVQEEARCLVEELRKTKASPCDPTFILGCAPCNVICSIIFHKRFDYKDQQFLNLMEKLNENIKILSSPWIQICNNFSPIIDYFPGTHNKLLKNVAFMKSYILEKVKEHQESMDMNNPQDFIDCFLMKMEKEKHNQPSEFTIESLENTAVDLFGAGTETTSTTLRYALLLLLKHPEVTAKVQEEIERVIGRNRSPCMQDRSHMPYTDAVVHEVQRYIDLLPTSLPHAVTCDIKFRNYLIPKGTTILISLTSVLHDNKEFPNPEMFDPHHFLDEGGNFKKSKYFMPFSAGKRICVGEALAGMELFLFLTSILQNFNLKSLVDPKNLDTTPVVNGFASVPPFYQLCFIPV

Cytochrome P450 2D6 = Cytochrome P450 2D6 (Homo sapiens, UniProt P10635); assay: Inhibition of CYP2D6 at 50 uM; assay type: ADME
Chain of Cytochrome P450 2D6 (P10635 whole entry): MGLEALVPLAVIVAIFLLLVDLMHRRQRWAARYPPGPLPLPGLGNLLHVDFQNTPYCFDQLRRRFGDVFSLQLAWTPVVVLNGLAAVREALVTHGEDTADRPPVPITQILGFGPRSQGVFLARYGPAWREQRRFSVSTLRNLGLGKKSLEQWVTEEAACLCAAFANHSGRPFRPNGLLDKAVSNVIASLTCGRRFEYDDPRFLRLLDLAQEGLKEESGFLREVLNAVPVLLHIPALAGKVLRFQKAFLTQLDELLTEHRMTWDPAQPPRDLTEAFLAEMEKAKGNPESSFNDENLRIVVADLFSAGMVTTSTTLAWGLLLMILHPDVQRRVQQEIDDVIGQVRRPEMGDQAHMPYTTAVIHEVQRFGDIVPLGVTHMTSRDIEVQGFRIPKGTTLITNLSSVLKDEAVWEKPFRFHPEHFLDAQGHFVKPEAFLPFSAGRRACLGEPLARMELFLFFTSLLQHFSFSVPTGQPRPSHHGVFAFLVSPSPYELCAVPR

Mus musculus [4] = assay: Reduction in amyloid beta 42 level in Tg2576 mouse brain at 1 mg/kg, sc administered subchronically for 5 days; assay type: functional; parameters: scale not given: the % may be the effect or the level left; conditions: route subcutaneous
[5] = Selectivity ratio of EC50 for gamma-secretase assessed as Notch-1 cleavage to EC50 for gamma-secretase assessed as beta-CTF cleavage
Mus musculus [6] = assay: Reduction in amyloid beta 40 level in Tg2576 mouse brain at 20 mg/kg, sc; assay type: functional; parameters: scale not given: the % may be the effect or the level left; conditions: route subcutaneous
Mus musculus [7] = assay: Reduction in amyloid beta 40 level in Tg2576 mouse brain at 1 mg/kg, sc administered subchronically for 5 days; assay type: functional; parameters: scale not given: the % may be the effect or the level left; conditions: route subcutaneous

Chain of Cytochrome P450 3A4 (P08684 whole entry): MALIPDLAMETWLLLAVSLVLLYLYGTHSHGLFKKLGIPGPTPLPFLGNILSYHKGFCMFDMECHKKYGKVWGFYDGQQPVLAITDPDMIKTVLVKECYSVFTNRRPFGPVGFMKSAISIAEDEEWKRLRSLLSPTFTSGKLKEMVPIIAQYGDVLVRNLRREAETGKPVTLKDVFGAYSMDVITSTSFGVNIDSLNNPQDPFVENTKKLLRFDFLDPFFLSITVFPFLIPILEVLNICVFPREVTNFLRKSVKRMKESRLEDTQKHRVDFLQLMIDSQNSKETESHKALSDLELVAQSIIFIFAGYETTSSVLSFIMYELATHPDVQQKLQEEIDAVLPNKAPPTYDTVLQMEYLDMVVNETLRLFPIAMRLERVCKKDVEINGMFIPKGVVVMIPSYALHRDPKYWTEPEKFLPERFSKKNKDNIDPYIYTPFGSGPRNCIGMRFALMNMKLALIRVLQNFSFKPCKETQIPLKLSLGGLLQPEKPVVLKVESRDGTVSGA

SMILES | EC50 [1] [nM] | other results
CC[C@H](C)[C@@H](CO)NS(=O)(=O)c1ccc(Br)cc1 | 2200 | 
CC(C)C[C@@H](CO)NS(=O)(=O)c1ccc(Cl)s1 | > 30000 | 
CC[C@H](C)[C@@H](CO)NS(=O)(=O)c1cccs1 | 7000 | 
CCCCC[C@H](CC(C)C)[C@@H](CO)NS(=O)(=O)c1ccc(Cl)s1 | 20700 | 
O=S(=O)(N[C@H](CO)C1CCNCC1)c1ccc(Cl)s1 | > 30000 | 
CC[C@H](C)[C@@H](CO)NS(=O)(=O)c1ccc(Cl)o1 | > 30000 | 
CCC[C@H](c1ccccc1)[C@@H](CO)NS(=O)(=O)c1ccc(Cl)s1 | 4060 | 
CC[C@H](C)[C@@H](CO)NS(=O)(=O)c1ccccc1 | 4700 | 
CCCCCC[C@@H](CCCCC)[C@@H](CO)NS(=O)(=O)c1ccc(Cl)s1 | > 30000 | 
CC(C)(C)[C@@H](CO)NS(=O)(=O)c1ccc(Cl)s1 | 7500 | 
CC[C@H](C)[C@@H](CO)NS(=O)(=O)c1sc(Cl)cc1Br | > 30000 | 
CC[C@H](C)[C@@H](CO)NS(=O)(=O)c1ccc(Cl)cc1 | 5500 | 
O=S(=O)(N[C@H](CO)C(c1ccccc1)c1ccccc1)c1ccc(Cl)s1 | > 30000 | 
C[C@@H](c1ccccc1)[C@@H](CO)NS(=O)(=O)c1ccc(Cl)s1 | 3910 | 
CCCCC(CCCC)[C@@H](CO)NS(=O)(=O)c1ccc(Cl)s1 | 4180 | 
CC[C@@H](C)[C@H](CO)NS(=O)(=O)c1ccc(Cl)s1 | 7600 | 
CCCCC[C@H](c1ccccc1)[C@@H](CO)NS(=O)(=O)c1ccc(Cl)s1 | > 30000 | 

These reach a lower EC50 [1]. Values come first.

EC50 [1] [nM] | SMILES | other results
72 | CCCCC[C@H](CC)[C@@H](CO)NS(=O)(=O)c1ccc(Cl)s1 | 
115 | CC(C)C[C@@H](C)[C@@H](CO)NS(=O)(=O)c1ccc(Cl)s1 | 
111 | CCCC(CCC)[C@@H](CO)NS(=O)(=O)c1ccc(Cl)s1 | 
28 | CC[C@H](CC(C)C)[C@@H](CO)NS(=O)(=O)c1ccc(Cl)s1 | 
28 | CCC(CC)[C@@H](CO)NS(=O)(=O)c1ccc(Cl)s1 [GSI-136] | EC50 [2]: 266 nM; Activity (Cytochrome P450 3A4): Not Active; solubility [3]: 0.037 µg/mL (≈ 0.119 µM); Activity (Cytochrome P450 2C9): Not Active; Activity (Cytochrome P450 2D6): Not Active; Activity (Mus musculus [4]): 15%; Activity [5]: 9.5; Activity (Mus musculus [6]): 55%; Activity (Mus musculus [7]): 25%
103 | CCC[C@H](C)[C@@H](CO)NS(=O)(=O)c1ccc(Cl)s1 | 
29 | CCC[C@H](CC)[C@@H](CO)NS(=O)(=O)c1ccc(Cl)s1 | 
160 | CC[C@H](C)[C@@H](CO)NS(=O)(=O)c1ccc(Br)s1 | 
264 | CCCCC[C@H](C)[C@@H](CO)NS(=O)(=O)c1ccc(Cl)s1 | 
170 | CC[C@H](C)[C@@H](CO)NS(=O)(=O)c1ccc(Cl)s1 | 
460 | CC[C@H](C)[C@@H](CO)NS(=O)(=O)c1ccc(F)s1 | 
429 | CCCCCC[C@H](CC)[C@@H](CO)NS(=O)(=O)c1ccc(Cl)s1 | 
212 | CCCCCC[C@@H](C)[C@@H](CO)NS(=O)(=O)c1ccc(Cl)s1 | 
1050 | CC[C@H](C)[C@@H](CO)NS(=O)(=O)c1cc(Cl)c(Cl)s1 | 
253 | CCC[C@H](CC(C)C)[C@@H](CO)NS(=O)(=O)c1ccc(Cl)s1 | 
826 | CCCCCC[C@@H](CCC)[C@@H](CO)NS(=O)(=O)c1ccc(Cl)s1 | 
820 | CC(C)[C@@H](CO)NS(=O)(=O)c1ccc(Cl)s1 | 
820 | O=S(=O)(N[C@H](CO)C1CCCCC1)c1ccc(Cl)s1 | 
43 | CCCCCC[C@@H](CC)[C@@H](CO)NS(=O)(=O)c1ccc(Cl)s1 | 
71 | CCCCCC[C@@H](C(C)C)[C@@H](CO)NS(=O)(=O)c1ccc(Cl)s1 | 
580 | O=S(=O)(N[C@H](CO)C1CCCC1)c1ccc(Cl)s1 | 
140 | CC[C@@H](C)[C@@H](CO)NS(=O)(=O)c1ccc(Cl)s1 | 
490 | CC(C)[C@@](C)(CO)NS(=O)(=O)c1ccc(Cl)s1 | 

— ChEMBL document CHEMBL1143272, “(S)-N-(5-Chlorothiophene-2-sulfonyl)-beta,beta-diethylalaninol a Notch-1-sparing gamma-secretase inhibitor” (Bioorg Med Chem Lett, 2009)
